Activity calls are given as the source filed them. No cut-off for these calls is given here.

Consider 2 compounds from ChEMBL document CHEMBL1150443, “Synthesis and ion-binding properties of an immobilized bis-cysteine peptide” (Bioorg Med Chem Lett, 1992).

The nature of assay [1]: Binding constant of the ion pair ( lithium picrate salt) to the peptide-matrix was calculated from the spectrophotometric determination of the free […] picrate salt after equilibration with the immobilized peptide in trifluoroethanol; NA=No affinity.
Assay [2] can be described thus: Binding constant of the ion pair ( lithium picrate salt) to the peptide-matrix was calculated from the spectrophotometric determination of the free Na+ picrate salt after equilibration with the immobilized peptide in trifluoroethanol.
Assay [3] in a line: Binding constant of the ion pair ( lithium picrate salt) to the peptide-matrix was calculated from the spectrophotometric determination of the free Li+ picrate salt after equilibration with the immobilized peptide in trifluoroethanol.
Assay [4] in a line: Binding constant of the ion pair ( sodium picrate salt) to the peptide-matrix was calculated from the spectrophotometric determination of the free Na+ picrate salt after equilibration with the immobilized peptide in trifluoroethanol.
Assay [5] can be described thus: Binding constant of the ion pair ( lithium picrate salt) to the peptide-matrix was calculated from the spectrophotometric determination of the free Li+ picrate salt after equilibration with the immobilized peptide in trifluoroethanol; NA=No affinity.
Assay [6] is described as follows: Binding constant of the ion pair ( potassium picrate salt) to the peptide-matrix was calculated from the spectrophotometric determination of the free K+ picrate salt after equilibration with the immobilized peptide in trifluoroethanol; NA=No affinity.

As to `CC(=O)N[C@@H]1CSSC[C@@H](NC(C)=O)C(=O)N2CCC[C@@H]2C(=O)N[C@H](C(C)C)C(=O)N[C@H](C(N)=O)CSSC[C@@H](C(N)=O)NC(=O)[C@@H](C(C)C)NC(=O)[C@H]2CCCN2C1=O`, the outcome in assay [1] was inactive. Besides, the Log K in assay [2] is 2.11; in assay [3] it was 2.6.
With `CC(=O)N[C@@H]1CSSC[C@@H](NC(C)=O)C(=O)N2CCC[C@@H]2C(=O)N[C@H](C(C)C)C(=O)N[C@H](C(=O)O)CSSC[C@@H](C(N)=O)NC(=O)[C@@H](C(C)C)NC(=O)[C@H]2CCCN2C1=O`, the KNa in assay [4] was 5200 M⁻¹. In addition, the result in assay [5] and in assay [6] was inactive.
